The experiment concerns MIA PaCa-2 cells. Nature of the experiment: In vitro anti-proliferative activity against MIA PaCa-2 cells. The experiment is classed as cell-based. The settings on record: Homo sapiens, viability 72 h after dosing by intracellular ATP content, versus DMSO group. The protocol: Example 50. In Vtro Anti-Proliferative Activity of Compounds of the Present Invention Against MIA PaCa-2 Cells
MIA PaCa-2 cells were seeded on a 96-well plate at 3000 cells/well. After overnight adherence culture, DMSO or the compounds serially diluted 1:5 from […] were added. The viability was assessed 72 h after dosing by measuring the intracellular ATP content. The inhibition percentages of viable cells by the compounds were calculated by comparing with the DMSO group, and the IC50 values were calculated.

One may read the IC50 as the concentration needed to halve the response being measured. A lower IC50 goes with greater potency in that assay. For `N[C@@H]1c2ccccc2CC12CCN(c1cnc3c(N4CCN5CCCc6cccc4c65)n[nH]c3n1)CC2` [Compound 1], the IC50 worked out at 35.1 nM.

Consider `N[C@@H]1c2ccccc2CC12CCN(c1cnc3c(N4CCN5C(=O)CCc6cccc4c65)n[nH]c3n1)CC2` [Compound 3], for which the IC50 was determined as 5.1 nM.

Turning to `N[C@@H]1c2ccccc2CC12CCN(c1cnc3c(N4CCn5c(=O)ccc6cccc4c65)n[nH]c3n1)CC2` [Compound 6], the IC50 is 6.5 nM.

`N[C@@H]1c2ccccc2CC12CCN(c1cnc3c(N4CCN5C(=O)CCc6cc(F)cc4c65)n[nH]c3n1)CC2` [Compound 9] returned a half-maximal inhibitory concentration (IC50) of 8.9 nM.

`N[C@@H]1c2ccccc2CC12CCN(c1cnc3c(N4CCN5C(=O)CCc6c(F)ccc4c65)n[nH]c3n1)CC2` [Compound 10] registered an IC50 of 12.1 nM.

`N[C@@H]1c2cccnc2CC12CCN(c1cnc3c(N4CCN5C(=O)CCc6cccc4c65)n[nH]c3n1)CC2` [Compound 12] gave an IC50 of 5.8 nM.

For the compound `N[C@@H]1c2cccnc2CC12CCN(c1cnc3c(N4CCn5c(=O)ccc6cccc4c65)n[nH]c3n1)CC2` [Compound 14], the IC50 was found to be 7.2 nM.

`N[C@@H]1c2cccnc2CC12CCN(c1cnc3c(N4CCN5C(=O)CCc6cc(F)cc4c65)n[nH]c3n1)CC2` [Compound 16] gave an IC50 of 9.3 nM.

Regarding `NC1c2cccnc2CC12CCN(c1cnc3c(N4CCN5C(=O)CCc6c(F)ccc4c65)n[nH]c3n1)CC2` (stereo not drawn) [Compound 17], the midpoint of inhibition, the IC50, lay at 10.8 nM.

In the case of `N[C@@H]1c2cc(O)ccc2CC12CCN(c1cnc3c(N4CCN5C(=O)CCc6cccc4c65)n[nH]c3n1)CC2` [Compound 21], the IC50 was 11.3 nM.

`COc1cccc2c1CC1(CCN(c3cnc4c(N5CCN6C(=O)CCc7cccc5c76)n[nH]c4n3)CC1)[C@@H]2N` [Compound 24] displayed an IC50 of 9.6 nM.

With `N[C@@H]1c2ccc(F)nc2CC12CCN(c1cnc3c(N4CCN5C(=O)CCc6cccc4c65)n[nH]c3n1)CC2` [Compound 26], inhibition was half-maximal at 8.1 nM (IC50).

The compound `N[C@@H]1c2ccc(Cl)nc2CC12CCN(c1cnc3c(N4CCN5C(=O)CCc6cccc4c65)n[nH]c3n1)CC2` [Compound 27] showed an IC50 of 15.9 nM.

`N[C@@H]1c2cc(O)ccc2CC12CCN(c1cnc3c(N4CCN5C(=O)CCc6ccc(F)c4c65)n[nH]c3n1)CC2` [Compound 35]: half-maximal inhibition (IC50) was put at 17.3 nM.

For the compound `Cc1ccc2c(c1)[C@@H](N)C1(CCN(c3cnc4c(N5CCN6C(=O)CCc7ccc(F)c5c76)n[nH]c4n3)CC1)C2` [Compound 36], the IC50 was 12.5 nM.

Compound `N[C@@H]1c2cc(F)ccc2CC12CCN(c1cnc3c(N4CCN5C(=O)CCc6ccc(F)c4c65)n[nH]c3n1)CC2` [Compound 37] showed an IC50 of 13.9 nM.

As for `COc1cccc2c1CC1(CCN(c3cnc4c(N5CCN6C(=O)CCc7ccc(F)c5c76)n[nH]c4n3)CC1)[C@@H]2N` [Compound 38], the IC50 is 15.6 nM.

Compound `N[C@@H]1c2cc(O)ccc2CC12CCN(c1cnc3c(N4CCN5C(=O)CCc6cc(F)cc4c65)n[nH]c3n1)CC2` [Compound 40] gave an IC50 of 18.1 nM.

Take `Cc1ccc2c(c1)[C@@H](N)C1(CCN(c3cnc4c(N5CCN6C(=O)CCc7cc(F)cc5c76)n[nH]c4n3)CC1)C2` [Compound 41]: the IC50 was found to be 13.5 nM.

Take `N[C@@H]1c2cc(F)ccc2CC12CCN(c1cnc3c(N4CCN5C(=O)CCc6cc(F)cc4c65)n[nH]c3n1)CC2` [Compound 42]: the IC50 is 10.1 nM.

`N[C@@H]1c2cc(O)ccc2CC12CCN(c1cnc3c(N4CCN5C(=O)CCc6c(F)ccc4c65)n[nH]c3n1)CC2` [Compound 45] showed an IC50 of 11.5 nM.

Consider `Cc1ccc2c(c1)[C@@H](N)C1(CCN(c3cnc4c(N5CCN6C(=O)CCc7c(F)ccc5c76)n[nH]c4n3)CC1)C2` [Compound 46], for which the IC50 amounted to 14 nM.

`N[C@@H]1c2cc(F)ccc2CC12CCN(c1cnc3c(N4CCN5C(=O)CCc6c(F)ccc4c65)n[nH]c3n1)CC2` [Compound 47] displayed a concentration for half-maximal inhibition (IC50) of 9.5 nM.

As to `COc1cccc2c1CC1(CCN(c3cnc4c(N5CCN6C(=O)CCc7c(F)ccc5c76)n[nH]c4n3)CC1)[C@@H]2N` [Compound 48], the IC50 worked out at 19.2 nM.
